# Measured values reported in patent US20250288587A1, “Methods of Treating Fibrosis” (Athira Pharma, Inc., priority 2022, published 2025).
# Assays:
# [1] = tested on: CFA-stimulated rats; test: CFA inflammatory pain model, cytokine expression in paw skin; format: in vivo; set-up: key to IFN-γ expression in paw skin, change compared to CFA alone / IL-4 expression in paw skin, change compared to CFA alone / TNF-α expression in paw skin, change compared to CFA alone: NS = no statistically significant change in expression compared to CFA alone; + = statistically significant change in expression compared to CFA alone, p < 0.05; details: for IFN-γ expression in paw skin, change compared to CFA alone / IL-4 expression in paw skin, change compared to CFA alone / TNF-α expression in paw skin, change compared to CFA alone: day 8
# Procedure: (§1) Response to peripheral inflammatory stimulus can be modeled by administering complete Freund's adjuvant (CFA), a suspension of desiccated mycobacterium in paraffin oil and mannide monooleate, by subcutaneous injection into the rat's footpad. The introduction of CFA to peripheral tissues leads to a rapid, sustained, inflammatory reaction in the treated tissue within 24 hours. Subcutaneous administration of CFA in the plantar region of the paw induces inflammatory pain behaviors that persist for at least 8 days. CFA treatment also leads to the accumulation of inflammatory cytokines in paw tissue at the site of injury, which, if unresolved, can lead to formation of fibrotic tissue. The extent of inflammatory response to CFA can be assessed by quantification of inflammatory cytokines in paw skin lysate, and inflammatory pain behaviors by mechanical allodynia (von Frey test) and thermal hyperalgesia (Hargreaves test).
# (§2) In another study, Compounds 1a, 5a, and 6a were similarly tested against CFA-induced inflammatory stimulation in the right hind foot for their ability to reduce pain behaviors. This study also included quantification of inflammatory cytokine expression in paw skin lysate. Inflammatory pain stimulation with CFA injection and assessment of mechanical and thermal pain behaviors were performed as described above, with the exception that only post-dose pain behavior testing is reported.
# (§3) Intraplantar CFA injection occurred at day 0. Treatment with Compounds 1a, 5a, and 6a occurred at days −2, 1, 3, and 7. At day 8, the rats were terminated and cytokine levels were measured in paw skin and plasma. Tissue from paw bone, joint, and muscle were obtained for H&E staining and analysis. Cytokine levels in test compound-treated animals were compared to CFA-stimulated animals. Analytes included interleukin 4 (IL-4), tumor necrosis factor alpha (TNF-α) and interferon gamma (IFN-γ). Statistical analysis consisted of 1-way ANOVA followed by Dunnett's multiple comparisons post-test. Mechanical allodynia and thermal hyperalgesia were tested 1 hour post-dosing on days 1, 3, and 7. PWT refers to […] paw withdrawal threshold where a higher value corresponds to a higher pain threshold. PWL refers to […] paw withdrawal latency where a higher value corresponds to a higher pain threshold.
# [2] = tested on: CFA-stimulated rats; test: CFA inflammatory pain model, mechanical allodynia (von Frey test); format: in vivo; set-up: key to Mechanical Allodynia, change in sensitivity compared to CFA alone / Mechanical Allodynia, significant reduction in pain behavior vs CFA alone: NS = no statistically significant change in sensitivity compared to CFA alone; + = statistically significant change in sensitivity compared to CFA alone, p < 0.05
# Procedure: as §1
# (§4) In one study, Compound 2a was tested for its ability to reduce inflammatory pain behaviors in the CFA inflammation model. On study day 0, […] of CFA was administered subcutaneously in the plantar of the right hind paw. Animals were treated daily with Compound 2a in solution via oral gavage (PO) at doses of 1, 0.1, and 0.025 mg/kg. Treatment began before CFA injection on study day −1 and continued through study day 8.
# Mechanical allodynia was measured using the von Frey test. In this test, rats were placed on a wire mesh and a series of filaments designed to deliver probing force ranging from 4 to 26 grams were applied to the mid-plantar surface of the right hind paw. Animals indicated pain response by lifting the probed paw. The minimal force required to elicit the withdrawal response was recorded as the paw withdrawal threshold (PWT). Von Frey testing was performed 1 hour after Compound 2a dosing on study day 1, 3, and 7, and was also tested pre-dosing on day 7. Statistical analysis was performed using a 1-way ANOVA with Tukey post-test. A p-value below 0.05 was considered statistically significant. Control animals stimulated with CFA but treated with only vehicle had high sensitivity to mechanical stimulation compared to normal control animals.
# as §2, §3
# [3] = tested on: CFA-stimulated rats; test: CFA inflammatory pain model, thermal hyperalgesia (Hargreaves method); format: in vivo; details: Day 5, 1 hour pre-dosing; data not shown
# [4] = tested on: CFA-stimulated rats; test: as above; format: in vivo; set-up: key to Thermal Hyperalgesia, change in sensitivity compared to CFA alone / Thermal Hyperalgesia, significant reduction in pain behavior vs CFA alone: NS = no statistically significant change in sensitivity compared to CFA alone; + = statistically significant change in sensitivity compared to CFA alone, p < 0.05
# Procedure: as §1, §4
# Thermal hyperalgesia was measured using the Hargreaves method. A temperature ramp was applied to the right hind paw and the paw withdrawal latency (PWL) was recorded as a measure of sensitivity to thermal stimulation. […] Statistical analysis was performed using a 1-way ANOVA with Tukey post-test. A p-value below 0.05 was considered statistically significant.
# as §2, §3
# [5] = tested on: THP-1-differentiated macrophages; test: Pro-inflammatory cytokine expression in LPS-challenged THP-1-differentiated macrophages; format: cell-based, human; set-up: key to IL-6, significant reduction in culture supernatant vs LPS treatment / TNF-α, significant reduction in culture supernatant vs LPS treatment / IL-1β, significant reduction in culture supernatant vs LPS treatment: “NS” indicates a non-significant reduction in the indicated cytokine; “+” indicates a p value <0.05 in Tukey post test; “++” indicates a p value <0.01 in Tukey post test; details: for IL-1β, significant reduction in culture supernatant vs LPS treatment / IL-6, significant reduction in culture supernatant vs LPS treatment / TNF-α, significant reduction in culture supernatant vs LPS treatment: 20 min pre-treatment, 24 hrs LPS
# Procedure: Differentiation with PMA causes THP-1 monocyte cells to acquire functional and morphological resemblance to macrophages. LPS interacts with THP-1 differentiated macrophage through the toll-like receptor 4, triggering the inflammatory response and stimulating pro-inflammatory cytokine release and eventually leading to cellular death. Compounds were tested to determine their anti-inflammatory effects on LPS-challenged macrophage cultures. THP-1-differentiated macrophages were treated with test compounds for 20 minutes, followed by 24 hrs of LPS challenge. Culture supernatants were then collected to analyzed for the presence of pro-inflammatory cytokines: […], interleukin 6 (IL-6) and tumor necrosis factor α (TNF-α).
# Cytokine quantification in cell culture supernatants was accomplished by HTRF kits to assess levels of IL-1β (Human IL-1β kit, #62HIL1BPEG, Cisbio) and IL-6 (Human IL-6 kit, 62HIL06PET, Cisbio), and by ELISA to determine the levels of TNF-α (Human TNF-α ELISA kit, KHC3011, ThermoFisher).
# Data analysis was performed via 1-way ANOVA with Tukey post-test compared to LPS treatment cultures using Prism statistical software (GraphPad). Tabular data indicates significance of reduction in culture supernatants for the indicated analyte at the indicated doses.
# [6] = 2.5 mg/kg PO, Day 1, 1 h post-dose
# [7] = 2.5 mg/kg PO, Day 3, 1 h post-dose
# [8] = 2.5 mg/kg PO, Day 7, 1 h post-dose
# [9] = 10 mg/kg PO, Day 1, 1 h post-dose
# [10] = 10 mg/kg PO, Day 3, 1 h post-dose
# [11] = 10 mg/kg PO, Day 7, 1 h post-dose
smiles,measurement,setting,value
CCC(C)CN1CC2N(Cc3ccc(OC(F)F)cc3)CCC(=O)N2[C@@H](C)C1=O (some centres unmarked) [Compound 6a],"IFN-γ expression in paw skin, change compared to CFA alone",[1]; 2.5 mg/kg PO,NS
same,"IL-4 expression in paw skin, change compared to CFA alone",[1]; 2.5 mg/kg PO,"+ (+ = statistically significant change in expression compared to CFA alone, p < 0.05)"
same,"TNF-α expression in paw skin, change compared to CFA alone",[1]; 2.5 mg/kg PO,"+ (+ = statistically significant change in expression compared to CFA alone, p < 0.05)"
same,"IFN-γ expression in paw skin, change compared to CFA alone",[1]; 10 mg/kg PO,NS
same,"IL-4 expression in paw skin, change compared to CFA alone",[1]; 10 mg/kg PO,NS
same,"TNF-α expression in paw skin, change compared to CFA alone",[1]; 10 mg/kg PO,NS
same,IFN-γ expression in paw skin,[1]; both tested doses,no effect
same,"Mechanical Allodynia, significant reduction in pain behavior vs CFA alone",[2]; [6],NS
same,"Mechanical Allodynia, significant reduction in pain behavior vs CFA alone",[2]; [7],NS
same,"Mechanical Allodynia, significant reduction in pain behavior vs CFA alone",[2]; [8],NS
same,"Mechanical Allodynia, significant reduction in pain behavior vs CFA alone",[2]; [9],NS
same,"Mechanical Allodynia, significant reduction in pain behavior vs CFA alone",[2]; [10],NS
same,"Mechanical Allodynia, significant reduction in pain behavior vs CFA alone",[2]; [11],NS
same,PWL (paw withdrawal latency),[3],statistically significant increase
same,"Thermal Hyperalgesia, significant reduction in pain behavior vs CFA alone",[4]; [6],NS
same,"Thermal Hyperalgesia, significant reduction in pain behavior vs CFA alone",[4]; [7],NS
same,"Thermal Hyperalgesia, significant reduction in pain behavior vs CFA alone",[4]; [8],"+ (+ = statistically significant change in sensitivity compared to CFA alone, p < 0.05)"
same,"Thermal Hyperalgesia, significant reduction in pain behavior vs CFA alone",[4]; [9],NS
same,"Thermal Hyperalgesia, significant reduction in pain behavior vs CFA alone",[4]; [10],NS
same,"Thermal Hyperalgesia, significant reduction in pain behavior vs CFA alone",[4]; [11],"+ (+ = statistically significant change in sensitivity compared to CFA alone, p < 0.05)"
same,study days on which thermal sensitivity was reduced,"[4]; PO, post-dose testing, any tested dose",study day 7
same,PWL (paw withdrawal latency) vs CFA+vehicle,"[4]; day 7 at each dose, data not shown",statistically significant increase
same,"IL-1β, significant reduction in culture supernatant vs LPS treatment",[5]; 0.1 nM,NS
same,"IL-6, significant reduction in culture supernatant vs LPS treatment",[5]; 0.1 nM,NS
same,"TNF-α, significant reduction in culture supernatant vs LPS treatment",[5]; 0.1 nM,NS
same,"IL-1β, significant reduction in culture supernatant vs LPS treatment",[5]; 10 nM,NS
same,"IL-6, significant reduction in culture supernatant vs LPS treatment",[5]; 10 nM,NS
same,"TNF-α, significant reduction in culture supernatant vs LPS treatment",[5]; 10 nM,NS
same,"IL-1β, significant reduction in culture supernatant vs LPS treatment",[5]; 1000 nM,+ (“+” indicates a p value <0.05 in Tukey post test)
same,"IL-6, significant reduction in culture supernatant vs LPS treatment",[5]; 1000 nM,NS
same,"TNF-α, significant reduction in culture supernatant vs LPS treatment",[5]; 1000 nM,+ (“+” indicates a p value <0.05 in Tukey post test)
same,expression of IL-1β and TNF-α,[5]; at at least one tested dose,significantly reduced
